Measured values as given in US7049311B1, “Pyrrolbenzodiazepines” (Spirogen Limited, priority 1998, dated 2006).
Read-outs that look alike come from different tables or passages of the source.

Experiments:
[1] = tested on: HCC-2998; assay: NCI in vitro cytotoxicity screen; assay type: cell-based; settings: Homo sapiens, HCC 2998, 48 h, read-out: LC50
Description: (§1) The National Cancer Institute (NCI), Bethesda, Md., USA has available an in vitro cytotoxicity screen which consists of approximately 60 human tumour cell lines against which compounds are tested at a minimum of five concentrations each differing 10-fold. A 48 hour continuous exposure protocol is used, where cell viability or growth is estimated with an SRB protein assay.
(§2) The test compounds were evaluated against approximately 60 human tumour cell lines. The NCI screening procedures were described in detail by Monks and co-workers (Monks, A et al., Journal of the National Cancer Institute, 1991, 83, 757). Briefly, cell suspensions were diluted according to the particular cell type and the expected target cell density (5000-40,000 cells per well based on cell growth characteristics), and added by pipette (100 μL) into 96-well microtitre plates. The cells were allowed a preincubation period of 24 hours at 37° C. for stabilisation. Dilutions at twice the intended test concentration were added at time zero in 100 μL aliquots to the wells. The test compounds were evaluated at five 10-fold dilutions (10^−4, 10^−5, 10^−6, 10^−7 and 10^−[…]). The test compounds were incubated for 48 hours in 5% CO2 atmosphere and 100% humidity. The cells were then assayed using the sulphorhodamine B assay. A plate reader was used to read the optical densities and a microcomputer processed the readings into LC50 values, which is the dosage required to kill half of the cells.

[2] = tested on: MALME-3M; assay: NCI in vitro cytotoxicity screen; assay type: cell-based; settings: Homo sapiens, Malme-3M, 48 h, read-out: LC50
Description: as §1, §2

[3] = tested on: NCI-H23; assay: NCI in vitro cytotoxicity screen; assay type: cell-based; settings: Homo sapiens, NCI-H23, 48 h, read-out: LC50
Description: as §1, §2

[4] = tested on: RXF 393; assay: NCI in vitro cytotoxicity screen; assay type: cell-based; settings: Homo sapiens, RXF 393, 48 h, read-out: LC50
Description: as §1, §2

[5] = tested on: SK-MEL-2; assay: NCI in vitro cytotoxicity screen; assay type: cell-based; settings: Homo sapiens, SK-MEL-2, 48 h, read-out: LC50
Description: as §1, §2

[6] = tested on: A2780cisR; assay: Ovarian carcinoma cytotoxicity assay; assay type: cell-based, human; settings: Homo sapiens, A2780cisR
Description: (§3) Compounds of the invention (and Anthramycin as a comparison) were evaluated for their cytotoxic activity in ovarian cell lines by Dr Lloyd R. Kelland's group at The Institute of Cancer Research, Sutton, UK. The five cell lines investigated were SKOV-3, A2780/A2780cisR and CH1/CH1cisR (cis R denotes that the cell line is resistant to cisplatin).
(§4) Single viable cells were seeded in growth medium (160 μL) in […] microtitre plates and allowed to attach overnight. […] After 96 hours, the medium was removed and the remaining cells fixed by exposure to 10% trichloroacetic acid on ice for 30 minutes. The wells were then washed 3-4 times with tap water, air dried overnight and treated with 100 μL of sulphorhodamine B (0.4%) dissolved in 1% acetic acid. Staining was allowed to continue for 10-15 minutes, then the wells were washed 3-4 times with 1% acetic acid, air dried and then added to Tris base (100 μL of 10 mM). Plates were then shaken and absorbance readings at 540 nm were determined using a plate reader. By using the Quattro-Pro software package, the IC50 values were calculated from plots of concentration versus percentage absorbance (compared with 8 untreated wells).

[7] = tested on: A2780; assay: Ovarian carcinoma cytotoxicity assay; assay type: cell-based, human; settings: Homo sapiens
Description: as §3, §4

[8] = tested on: CH1cisR; assay: Ovarian carcinoma cytotoxicity assay; assay type: cell-based; settings: Homo sapiens, CH1cisR
Description: as §3, §4

[9] = tested on: CH1; assay: Ovarian carcinoma cytotoxicity assay; assay type: cell-based; settings: Homo sapiens
Description: as §3, §4

[10] = tested on: SKOV-3; assay: Ovarian carcinoma cytotoxicity assay; assay type: cell-based; settings: Homo sapiens
Description: as §3, §4

[11] = tested on: COLO 205; assay: NCI in vitro cytotoxicity screen; assay type: cell-based; settings: Homo sapiens, COLO 205, 48 h, read-out: LC50
Description: as §1, §2

[12] = tested on: KM12; assay: NCI in vitro cytotoxicity screen; assay type: cell-based; settings: Homo sapiens, KM12, 48 h, read-out: LC50
Description: as §1, §2

[13] = tested on: NCI-H460; assay: NCI in vitro cytotoxicity screen; assay type: cell-based; settings: Homo sapiens, NCI-H460, 48 h, read-out: LC50
Description: as §1, §2

[14] = tested on: SNB-75; assay: NCI in vitro cytotoxicity screen; assay type: cell-based; settings: Homo sapiens, SNB-75, 48 h, read-out: LC50
Description: as §1, §2

[15] = tested on: UACC-62; assay: NCI in vitro cytotoxicity screen; assay type: cell-based; settings: Homo sapiens, UACC-62, 48 h, read-out: LC50
Description: as §1, §2

[16] = tested on: approximately 60 human tumour cell lines; assay: NCI in vitro cytotoxicity screen, whole panel; assay type: cell-based
Description: as §1
as §2, with “The test compounds were incubated for 48 hours in 5% CO2 atmosphere and 100% humidity. The cells were then assayed using the sulphorhodamine B assay.” left out

[17] = tested on: M14; assay: NCI in vitro cytotoxicity screen; assay type: cell-based; settings: Homo sapiens, M14, 48 h, read-out: LC50
Description: as §1, §2

[18] = tested on: MDA-MB-435; assay: NCI in vitro cytotoxicity screen; assay type: cell-based; settings: Homo sapiens, MDA-MB-435, 48 h, read-out: LC50
Description: as §1, §2

[19] = tested on: NCI-H522; assay: NCI in vitro cytotoxicity screen; assay type: cell-based; settings: Homo sapiens, NCI-H522, 48 h, read-out: LC50
Description: as §1, §2

[20] = tested on: SK-MEL-28; assay: NCI in vitro cytotoxicity screen; assay type: cell-based; settings: Homo sapiens, SK-MEL-28, 48 h, read-out: LC50
Description: as §1, §2

[21] = tested on: SK-MEL-5; assay: NCI in vitro cytotoxicity screen; assay type: cell-based; settings: Homo sapiens, SK-MEL-5, 48 h, read-out: LC50
Description: as §1, §2

[22] = tested on: UACC-257; assay: NCI in vitro cytotoxicity screen; assay type: cell-based; settings: Homo sapiens, UACC-257, 48 h, read-out: LC50
Description: as §1, §2

[23] = cisplatin-resistant, 96 hours, sulphorhodamine B, read-out: IC50 A2780cisR
[24] = A2780, 96 hours, sulphorhodamine B, read-out: IC50 A2780
[25] = cisplatin-resistant, 96 hours, sulphorhodamine B, read-out: IC50 CH1cisR
[26] = CH1, 96 hours, sulphorhodamine B, read-out: IC50 CH1
[27] = SK-OV-3, 96 hours, sulphorhodamine B, read-out: IC50 Skov3

SMILES | CC50 [1] | CC50 [2] | CC50 [4] | CC50 [5] | CC50 [11] | CC50 [15] | IC50 [6, 23] | IC50 [7, 24] | IC50 [8, 25] | IC50 [9, 26] | IC50 [10, 27] | CC50 [18] | other results
COc1cc2c(cc1OCc1ccccc1)N=C[C@@H]1CC(CCOC(C)=O)=CN1C2=O [UP2051 (31), (11aS)-2-(Acyloxy-2-ethyl)-8-benzyloxy-7-methoxy-1,2,3,11a-tetrahydro-5H-pyrrolo[2,1-c][1,4]benzodiazepin-5-one] | 5.2 µM | 5.1 µM | 0.8 µM | 7.6 µM | – | – | – | – | – | – | – | – | CC50 [3]: 9.3 µM; IC50 ([6]; 96 h, read-out: IC50 A2780cisR, cisplatin-resistant, 96 hours, sulphorhodamine B): 0.27 µM; IC50 ([7]; A2780, 96 h, read-out: IC50 A2780, 96 hours, sulphorhodamine B): 0.1 µM; IC50 ([8]; 96 h, read-out: IC50 CH1cisR, cisplatin-resistant, 96 hours, sulphorhodamine B): 0.16 µM; IC50 ([9]; CH1, 96 h, read-out: IC50 CH1, 96 hours, sulphorhodamine B): 0.105 µM; IC50 ([10]; SK-OV-3, 96 h, read-out: IC50 Skov3, 96 hours, sulphorhodamine B): 0.46 µM
COC(=O)CC1=CN2C(=O)c3cc(OC)c(OCc4ccccc4)cc3N=C[C@@H]2C1 [UP2003 (24)] | 5.2 µM | 0.7 µM | – | – | 1.4 µM | 0.7 µM | 0.12 µM | 0.0145 µM | 0.04 µM | 0.016 µM | 0.012 µM | – | CC50 [12]: 9.5 µM; CC50 [13]: 7.6 µM; CC50 [14]: 6 µM
O=C1c2cc(-c3cccc([N+](=O)[O-])c3)ccc2N=C[C@@H]2CCCN12 [UP2029 (140), (11aS)-7-(3′-Nitrophenyl)-1,2,3,11a-tetrahydro-5H-pyrrolo[2,1-c][1,4]benzodiazepin-5-one] | – | – | – | – | – | – | 32 µM | 34.5 µM | 14 µM | 22.5 µM | 1.4 µM | – | cytotoxic activity (LC50 below 10 μM) ([16]; all panels): completely abolished cytotoxic activity
O=C1c2cc(-c3ccccc3)ccc2N=C[C@@H]2CCCN12 [UP2026 (136), (11aS)-7-Phenyl-1,2,3,11a-tetrahydro-5H-pyrrolo[2,1-c][1,4]benzodiazepin-5-one] | 6.4 µM | 6.1 µM | 7.6 µM | 7.4 µM | 8.8 µM | 6.6 µM | 3.7 µM | 1.15 µM | 1.45 µM | 1.5 µM | 4.9 µM | 6.3 µM | CC50 [17]: 7.8 µM; CC50 [19]: 7.8 µM; CC50 [20]: 7.1 µM; CC50 [21]: 9 µM; CC50 [22]: 7.7 µM; cytotoxicity in the CNS cell line panel ([16]; CNS panel): inactive
COC(=O)CC1=CN2C(=O)c3cc(OC)c(OC)cc3N=C[C@@H]2C1 [UP2065 (42)] | – | 4.7 µM | 0.8 µM | 3.5 µM | 4 µM | – | 0.46 µM | 0.36 µM | 0.15 µM | 0.115 µM | 0.45 µM | 0.8 µM | –
